Experimental findings from patent US20230414626A1, “INDUCTION OF FERROPTOSIS FOR CANCER THERAPY” (Memorial Sloan Kettering Cancer Center, priority 2020, published 2023) are described below.

The test concerns SREBF1-knockout cells. Put plainly: Cell death in SREBF1-knockout cells. It counts as cell-based, human. Particulars: SREBF1-knockout MDA-MB-453 and BT474 cells; Torin 1 μM; GDC-0941 2 μM; MK-2206 2 μM; CCI-779 0.5 μM. The method, then: FIG. 9 A-F. SREBP1 protects cells from ferroptosis. (A) MCF7 cells were treated as indicated. RSL3, 5 μM; CCI-779, 0.5 μM. Cell lysates were collected 24 h after treatment for Western blot detecting […], total S6K, SREBP1(P) and SREBP1(m). (B) Cells were pretreated with 5 μM Fatostatin A overnight and treated as indicated. RSL3, 0.5 μM for BT474 cells, 1 μM for MDA-MB-453 and 5 μM for MCF7 cells; Fer-1, 1 μM. (C) Efficiency of SREBF1 Knockout in BT474, MDA-MB-453, and MCF7 cells was monitored by western blot. (D) MCF7 cells were treated as indicated. RSL3, 5 μM; Fer-1, 1 μM. (E) Cells were treated as indicated. RSL3, 1 μM for MDA-MB-453 cells and 0.5 μM for BT474 cells; Fer-1, 1 μM; Torin, 1 μM; GDC-0941, 2 μM; MK-2206, 2 μM; CCI-779, 0.5 μM. (F) SREBP1m was overexpressed in MCF7, MDA-MB-453 and A549 cells and determined by western blot. Cells were treated as indicated. RSL3, 5 μM for MCF7 cells, 0.5 μM for MDA-MB-453 cells and 0.25 μM for A549 cells; CCI-779, 0.5 μM.
Cells were seeded in plates at appropriate cell density and incubated overnight at 37° C. containing 5% C02, and then subjected to treatments as described in individual experiments. Cells were stained with hoechst 33342 (0.1 μg/ml) to monitor total cell number, and with Sytox Green (5 nM) to monitor cell death. Culture plates were read by Cytation 5 at indicated time points. Percentage of cell death was calculated as Sytox Green-positive cell number over total cell number. For 3D spheroids, cell viability was determined a commercially available cell viability assay (Promega, Madison, WI, USA) following the manufacturer's instructions. Viability was calculated by normalizing ATP levels of samples to that of negative controls (spheroids in normal full media without treatment).
Keap1, NRF2 and SREBP1 depleted cells were generated with a CRISPR/Cas9-mediated knockout system. sgRNA sequences were cloned into LentiCRISPRV2. SCD1 depleted cells were generated with CRISPR/Cas9 mediated knockout system, using stable Cas9 expression cells and sanger CRISPR clone. […]

The structures appear in SMILES notation.

For the compound `CO[C@H]1C[C@@H]2CC[C@@H](C)[C@@](O)(O2)C(=O)C(=O)N2CCCC[C@H]2C(=O)O[C@H]([C@H](C)C[C@@H]2CC[C@@H](OC(=O)C(C)(CO)CO)[C@H](OC)C2)CC(=O)[C@H](C)/C=C(\C)[C@@H](O)[C@@H](OC)C(=O)[C@H](C)C[C@H](C)/C=C/C=C/C=C/1C` [CCI-779, Temsirolimus], the “further enhancement of RSL3-induced ferroptosis” value (from here on “further enhancement”) is on record as “failed to further enhance RSL3-induced ferroptosis”.

`CS(=O)(=O)N1CCN(Cc2cc3nc(-c4cccc5[nH]ncc45)nc(N4CCOCC4)c3s2)CC1` [GDC-0941]: the “further enhancement” value is listed as “failed to further enhance RSL3-induced ferroptosis”.

For `NC1(c2ccc(-c3nc4ccn5c(=O)[nH]nc5c4cc3-c3ccccc3)cc2)CCC1` [MK-2206], the “further enhancement” value was “failed to further enhance RSL3-induced ferroptosis”.

For the compound `CCC(=O)N1CCN(c2ccc(-n3c(=O)ccc4cnc5ccc(-c6cnc7ccccc7c6)cc5c43)cc2C(F)(F)F)CC1` [Torin], the “further enhancement” value is “failed to further enhance RSL3-induced ferroptosis”.
